From US9078442B2, “Herbicidally and fungicidally active 3-phenylisoxazoline-5-carboxamides and 3-phenylisoxazoline-5-thioamides” (BAYER INTELLECTUAL PROPERTY GMBH, priority 2011, dated 2015)

How the values were obtained:
Peronospora parasitica = assay: In vivo test Peronospora parasitica (downy mildew on cabbage), protective; conditions: evaluation 5 days after infection
Description: In vivo test Peronospora parasitica (downy mildew on cabbage) To prepare an appropriate active compound formulation, the active compound is mixed with acetone/Tween/DMSO and the mixture is diluted with water to the desired concentration. Cabbage plants are cultivated in 50/50 peat/pozzolan soil in small pots at 18-20° C. and sprayed at the cotyledon stage at the respective stated application rates to test for protective activity. Control plants were treated in the same manner, but using an aqueous solution without any active compounds. 24 hours after the spraying, the plants were sprayed with a spore suspension of Peronospora parasitica (50 000 spores/ml). The plants were placed in a cabin at 20° C. in a humid atmosphere for 5 days.

Botrytis cinerea = assay: In vivo test Botrytis cinerea (gray mold on cucumbers); conditions: Botrytis cinerea on cucumber, evaluation 5-7 days after infection
Description: Cucumber plants (Vert petit de Paris) are cultivated in 50/50 peat pozzolan substrate at 20-25° C. and sprayed at the Z16 stage with the active compound preparation given in Example 1. After 24 hours, the upper sides of the leaves of the plants are sprayed with a spore suspension of Botrytis cinerea (150 000 spores/ml). The spores of a 15-day old culture are collected and suspended in a nutrient solution consisting of • 20 g/l of gelatin; • 50 g/l of D-fructose; • 2 g/l of NH4NO3; • 1 g/L of KH2PO4. The inoculated cucumber plants are placed at 15-11° C. (day/night) and at 80% relative atmospheric humidity for 5-7 days.

Alternaria brassicae = assay: In vivo test Alternaria brassicae (salad radish); design: concentration or dose not given beside the values; conditions: Alternaria brassicae on salad radish, application rate not given, evaluation 6-7 days after inoculation
Description: Salad radish (cultivar Pernot) are cultivated in 50/50 peat pozzolan substrate at 18-20° C. and sprayed at the cotyledon stage with the active compound preparation given above. After 24 hours, the plants are sprayed with a spore suspension of Alternaria brassicae (40 000 spores/cm3). The inoculated plants are placed at 18° C. and in a humid atmosphere for 6-7 days. […] At an application rate of g/ha, the following efficacies are found for the following compounds.

Sphaerotheca fuliginea = assay: In vivo test Sphaerotheca fuliginea (cucumber); conditions: Sphaerotheca fuliginea on cucumber, evaluation 12 days after inoculation
Description: Cucumber plants (cultivar: Vert petit de Paris) are cultivated in 50/50 peat pozzolan substrate at 20/23° C. and sprayed at the cotyledon stage with the active compound preparation given in Example A. After 24 hours, the plants are sprayed with a spore suspension of Sphaerotheca fuliginea (100 000 spores/ml).

[1] = test system: Mycosphaerella graminicola; assay: In vivo test Mycosphaerella graminicola (wheat); conditions: Mycosphaerella graminicola on wheat, evaluation 21-28 days after inoculation
Description: Wheat plants (cultivar: (Scipion) are cultivated in 50/50 peat pozzolan substrate at 12° C. and sprayed at the 1-leaf stage with the active compound preparation as given in Example A. After 24 hours, the plants are sprayed with a spore suspension of Mycosphaerella graminicola (500 000 spores/ml).

Phytophthora infestans = assay type: in vivo; conditions: Phytophthora infestans on tomato, application rate 1200 g/ha, evaluation 5 days after infection
Leptosphaeria nodorum = assay: In vivo test Leptosphaeria nodorum (wheat); conditions: Leptosphaeria nodorum on wheat, application rate 1200 g/ha, evaluation 15-17 days after inoculation
Description: Wheat plants (cultivar: (Scipion) are cultivated in 50/50 peat pozzolan substrate at 12° C. and sprayed at the 1-leaf stage with the active compound preparation as given in Example A. After 24 hours, the plants are sprayed with a spore suspension of Leptosphaeria nodorum (250 000 spores/ml).

Row | Structure (SMILES) | Activity [%] (efficacy) (Peronospora parasitica; application rate 1200 g/ha) | Activity [%] (efficacy) ([1]; application rate 500 g/ha) | Activity [%] (efficacy) (Peronospora parasitica; application rate 500 g/ha) | Activity [%] (efficacy) (Phytophthora infestans) | also measured
1 | CCC(C)NC(=O)C1(C)CC(c2cc(Cl)cc(Cl)c2)=NO1 (mixture of isomers) [Example 6.217] | 100 | – | – | – | Activity [%] (efficacy) (Botrytis cinerea; application rate 1200 g/ha): 100%; Activity [%] (efficacy) (Alternaria brassicae): 81%
2 | Cc1c(NC(=O)C2(C)CC(c3cc(F)cc(F)c3)=NO2)cnn1C (centres unmarked) [Example 1.007] | – | 73 | – | – | Activity [%] (efficacy) (Sphaerotheca fuliginea; application rate 500 g/ha): 75%
3 | Cc1cc(CNC(=O)C2(C)CC(c3cc(Cl)cc(Cl)c3)=NO2)n(C)n1 (centres unmarked) [Example 1.122] | – | 75 | 100 | – | Activity [%] (efficacy) (Sphaerotheca fuliginea; application rate 500 g/ha): 72%
4 | CCn1cc(CNC(=O)C2(C)CC(c3cc(C)cc(C)c3)=NO2)c(C)n1 (centres unmarked) [Example 1.194] | 100 | – | – | 100 | Activity [%] (efficacy) (Botrytis cinerea; application rate 1200 g/ha): 95%; Activity [%] (efficacy) ([1]; application rate 1200 g/ha): 88%
5 | CCn1cc(CNC(=O)C2(C)CC(c3cccc(Cl)c3)=NO2)c(C)n1 (centres unmarked) [Example 1.195] | 100 | 79 | – | 100 | –
6 | CCn1cc(CNC(=O)C2(C)CC(c3cc(F)cc(Cl)c3)=NO2)c(C)n1 (centres unmarked) [Example 1.197] | 100 | – | – | 100 | Activity [%] (efficacy) (Sphaerotheca fuliginea; application rate 1200 g/ha): 100%
7 | CCn1cc(CNC(=O)C2(C)CC(c3cc(Cl)cc(Cl)c3)=NO2)c(C)n1 (centres unmarked) [Example 1.222] | – | – | 100 | 100 | Activity [%] (efficacy) ([1]; application rate 1200 g/ha): 96%
8 | Cn1cc(CNC(=O)C2(C)CC(c3cc(Cl)cc(Cl)c3)=NO2)cn1 (centres unmarked) [Example 1.285] | – | 75 | 100 | – | Activity [%] (efficacy) (Sphaerotheca fuliginea; application rate 500 g/ha): 89%
9 | CCCn1cc(CNC(=O)C2(C)CC(c3cc(Cl)cc(Cl)c3)=NO2)c(C)n1 (centres unmarked) [Example 1.374] | 100 | – | – | 100 | Activity [%] (efficacy) (Botrytis cinerea; application rate 1200 g/ha): 98%; Activity [%] (efficacy) (Sphaerotheca fuliginea; application rate 1200 g/ha): 99%
10 | CCn1cc(CNC(=O)C2(CC)CC(c3cc(Cl)cc(Cl)c3)=NO2)cn1 (centres unmarked) [Example 2.136] | 100 | – | – | 90 | Activity [%] (efficacy) ([1]; application rate 1200 g/ha): 88%
11 | CCn1cc(CNC(=O)C2(C3CC3)CC(c3cc(Cl)cc(Cl)c3)=NO2)c(C)n1 (centres unmarked) [Example 5.018] | – | – | 100 | 75 | Activity [%] (efficacy) ([1]; application rate 1200 g/ha): 88%
12 | COCCCCNC(=O)C1(C)CC(c2cc(Cl)cc(Cl)c2)=NO1 (centres unmarked) [Example 6.006] | 100 | – | – | 70 | Activity [%] (efficacy) (Leptosphaeria nodorum): 100%
13 | CC(C)(C)NC(=O)C1(C)CC(c2cc(Cl)cc(Cl)c2)=NO1 (centres unmarked) [Example 6.117, N-tert-butyl-3-(3,5-dichlorophenyl)-5-methyl-4,5-dihydro-1,2-oxazole-5-carboxamide] | – | 91 | 92 | – | Activity [%] (efficacy) (Alternaria brassicae): 73%
14 | CC(C)NC(=O)C1(C)CC(c2cc(Cl)cc(Cl)c2)=NO1 (centres unmarked) [Example 6.165] | – | 100 | 95 | – | Activity [%] (efficacy) (Botrytis cinerea; application rate 500 g/ha): 93%; Activity [%] (efficacy) (Alternaria brassicae): 95%
15 | CC(C)NC(=O)C1(C)CC(c2cccc(N)c2)=NO1 (centres unmarked) [Example 6.183] | – | – | – | – | Activity [%] (efficacy) (Sphaerotheca fuliginea; application rate 500 g/ha): 98%
16 | CC(C)NC(=O)C1(C)CC(c2cc(Cl)cc(C(F)(F)F)c2)=NO1 (centres unmarked) [Example 6.188] | – | 100 | – | – | Activity [%] (efficacy) (Botrytis cinerea; application rate 500 g/ha): 86%; Activity [%] (efficacy) (Alternaria brassicae): 73%
17 | CC(C)NC(=O)C1(C)CC(c2cc(Cl)cc(OCC(F)(F)F)c2)=NO1 (centres unmarked) [Example 6.193] | – | 95 | – | – | Activity [%] (efficacy) (Sphaerotheca fuliginea; application rate 500 g/ha): 85%
18 | CC1(C(=O)NCC2CC2)CC(c2cc(Cl)cc(Cl)c2)=NO1 (centres unmarked) [Example 6.431] | – | 100 | 71 | – | Activity [%] (efficacy) (Alternaria brassicae): 77%
